System: P388
Experiment: Inhibitory concentration required for cytotoxic effect against P388 murine leukemia cells
Assay type: functional, cell-based
Conditions: Mus musculus

Row | SMILES | IC50 [µM]
1 | C=CC(C)(C)c1[nH]cnc1/C=C1\NC(=O)[C@H](Cc2ccccc2)NC1=O | 0.35
2 | C=CC(C)(C)c1[nH]cnc1/C=C1\NC(=O)[C@@H](Cc2ccccc2)NC1=O | 38
